Source: paper PMC5986797, “Laminin heparin-binding peptides bind to several growth factors and enhance diabetic wound healing” (Nature Communications, 2018)

Tested on: full-thickness back-skin wounds in db/db mice
Experiment: Retention of VEGF-A165 at the wound site
Format: in vivo, mouse
Conditions: 3 days after treatment, fibrin matrix with 200 ng/wound VEGF-A165 and 2 µM peptide vs without peptide, ELISA
Procedure: Ten C57BLKS/J-m/Lepr db (db/db) mice (The Jackson laboratory) aged 10–11 weeks were used. Their backs were shaved and four full-thickness punch-biopsy wounds (6 mm in diameter) were created in each mouse. Directly after, fibrin matrices [80 µL in total, fibrinogen (10 mg/mL), 2 U/mL human thrombin, 4 U/mL factor XIII, 5 mM calcium chloride, 2 µM α2PI1–8-LAMA3_3043–3067, and 200 ng of recombinant human VEGF-A165] were polymerized on the wounds. To avoid drying of the matrices, the wounds were covered with non-adhering dressing (Adaptic, Johnson&Johnson), and then with adhesive film dressing (Hydrofilm, Hartmann). After 3 or 6 days, mice were sacrificed. The wounds were punched again, in order to recover the fibrinous matrices. Moreover, the tissue surrounding the wounds (2 mm beyond the wound margin) was removed. The tissue was transferred in 0.9 mL of tissue T-PER Tissue Protein Extraction Reagent (Thermo Scientific) containing 1 mg/mL of collagenase IV (Sigma-Aldrich), and homogenized with a tissue homogenizer. […] Recombinant human VEGF-A165 remaining in the fibrinous matrix and in the tissue surrounding the wound was quantified by ELISA (DuoSet, R&D Systems), using 200 ng of recombinant human VEGF-A165 as 100%. […]

amount of VEGF-A165 remaining in the wounds: significantly enhanced
Sequence: NQEQVSPLRLVFALGTDGKKLRIKSKEKCNDGK [α2PI1–8-LAMA3_3043–3067]
